Measured values reported in patent US8778894B2, “Luteolin and diosmin/diosmetin as novel STAT3 inhibitors for treating autism” (University of South Florida, priority 2008, dated 2014).

What was measured:
IL-1β [1] = assay: IL-1β ELISA in brain homogenates of IL-6/MIA newborn mice; type: in vivo; conditions: dams IL-6 5 μg i.p.; S31-201 4 μg i.p. or diosmin 10 mg/kg/day oral; P<0.01
Procedure: (§1) Mouse brain homogenates were prepared as described above and used at a dilution of 1:10 in PBS for these assays. Brain tissue-solubilized cytokines were quantified using commercially available ELISAs that allow for detection of IL-1β, and TNF-α. Cytokine detection was carried out according to the manufacturer's instruction. Total protein content was determined as described above and data represented as pg of cytokine/mg total cellular protein for each cytokine.
(§2) Pro-inflammatory cytokine analysis by ELISA was conducted on these newborn mouse brain homogenates. Data are represented as mean±SD of each cytokine in brain homogenates (pg/mg total protein) from these newborn mice.

[2] = test system: IL-6 induced JAK2 phosphorylation; assay: JAK2 phosphorylation in brain homogenates of IL-6/MIA newborn mice, Western blot; type: in vivo; conditions: dams IL-6 5 μg i.p. at E12.5; S31-201 4 μg i.p. or diosmin 10 mg/kg/day oral; vs IL-6 only, P<0.005
Procedure: (§3) Cultured cells were lysed in ice-cold lysis buffer (20 mM Tris, pH 7.5, 150 mM NaCl, 1 mM EDTA, 1 mM EGTA, 1% v/v Triton X-100, 2.5 mM sodium pyrophosphate, 1 mM β-glycerolphosphate, 1 mM Na3VO4, 1 μg/mL leupeptin, 1 mM PMSF) as described previously (Tan et al. 2002). Mouse brains were isolated under sterile conditions on ice and placed in ice-cold lysis buffer. Brains were then sonicated on ice for approximately 3 min, allowed to stand for 15 min at 4° C., then centrifuged at 15,000 rpm for 15 min at 4° C. Total protein content was estimated using the BCA protein assay (Pierce Biotechnology) and aliquots corresponding to 100 μg of total protein were electrophoretically separated using 10% Tris gels. Electrophoresed proteins were then transferred to nitrocellulose membranes (Bio-Rad, Richmond, Calif.), washed in Tris buffered saline with 0.1% Tween-20 (TBS/T), and blocked for 1 h at ambient temperature in TBS/T containing 5% (w/v) non-fat dry milk. After blocking, membranes were hybridized overnight at 4° C. with various primary antibodies. Membranes were then washed 3× for 5 min each in TBS/T and incubated for 1 h at ambient temperature with the appropriate HRP-conjugated secondary antibody (1:1000, Pierce Biotechnology). […] Densitometric analysis was conducted using a FluorS Multiimager with Quantity One™ software (Bio-Rad, Hercules, Calif.). […]

IL-1β [3] = assay: IL-1β ELISA in brain homogenates of IL-6/MIA adult offspring; type: in vivo, mice; conditions: maternal co-treatment with S31-201 or diosmin vs IL-6 only; P<0.05
Procedure: as §1
(§4) At sacrifice, brain homogenates were prepared from offspring of mice treated with IL-6, IL-6/S31-201, IL-6/Diosmin or PBS (control) (n=8, 4 female/4 male). Pro-inflammatory cytokine analysis by ELISA was conducted on these mouse brain homogenates. Data are represented as mean±SD of each cytokine in brain homogenates (pg/mg total protein) from these mice.

[4] = test system: STAT3 phosphorylation (Ser727); assay: STAT3 phosphorylation in brain homogenates of IL-6/MIA adult offspring, Western blot; type: in vivo, mice; conditions: maternal co-treatment with S31-201 or diosmin vs IL-6 only; P<0.005
Procedure: as §3

TNF-α [5] = assay: TNF-α ELISA in brain homogenates of IL-6/MIA adult offspring; type: in vivo, mice; conditions: maternal co-treatment with S31-201 or diosmin vs IL-6 only; P<0.05
Procedure: as §1, §4

TNF-α [6] = assay: TNF-α ELISA in brain homogenates of IL-6/MIA newborn mice; type: in vivo; conditions: dams IL-6 5 μg i.p.; S31-201 4 μg i.p. or diosmin 10 mg/kg/day oral; P<0.01
Procedure: as §1, §2

[7] = test system: IL-6 induced STAT3 phosphorylation; assay: STAT3 phosphorylation in brain homogenates of IL-6/MIA newborn mice, Western blot; type: in vivo; conditions: dams IL-6 5 μg i.p. at E12.5; S31-201 4 μg i.p. or diosmin 10 mg/kg/day oral; vs IL-6 only, P<0.005
Procedure: as §3

IL-6/MIA adult offspring [8] = assay: Social interaction test in IL-6/MIA adult offspring; type: in vivo, mice; conditions: for social interaction test, sniffing time: maternal S31-201 or diosmin vs IL-6/MIA, P<0.05; for social interaction test, social impairment (preference for the social chamber): maternal co-treatment with S31-201 4 μg i.p. or diosmin 10 mg/kg/day oral, P<0.005
Procedure: Pregnant C57BL/6 mice, embryonic day 2 (E2) were obtained from Jackson Laboratory (Bar Harbor, […].) and individually housed and maintained in an animal facility of the University of South Florida (USF). All subsequent experiments were performed in compliance with protocols approved by the USF Institutional Animal Care and Use Committee. […] Intraperitoneal PBS injection (200 μL) was used as the control for IL-6 administration. Social interaction (SI)—The testing apparatus consisted of a 60×40 cm Plexiglas box divided into three chambers. Mice were able to move between chambers through a small opening (6×6 cm) in the dividers. Plastic cylinders in each of the two side chambers contained the probe mice, and numerous 1 cm holes in the cylinders enabled test and probe mice to contact each other. Test mice were placed in the center chamber, with an overhead camera recording their movements. Mice were allowed 5 min of exploration time in the box, after which an unfamiliar, same-sex probe mouse from the same experimental group was placed in one of two restraining cylinders (Radyushkin et al. 2009). The Ethovision software (Noldus, Leesburg, Va.) program measured time spent in each of the three chambers, and social preference was defined as follows: (% time spent in the social chamber)−(% time spent in the opposite chamber). […] We also treated control mice (non-IL-6 treated) with the STAT3 inhibitor, S31. […] (10 mg/kg/day)]. […] Heightened anxiety and social interaction deficits are hallmarks of schizophrenia and autism. Reluctance to enter the center portion of a well-lit open field is usually taken as a measure of heightened anxiety under mildly stressful conditions (Smith et al., 2007).

IL-6/MIA adult offspring [9] = conditions: for open-field test, entries into the center: adult offspring of IL-6 treated dams co-treated with S31-201 4 μg i.p. or diosmin 10 mg/kg/day oral, P<0.01
Procedure: Pregnant C57BL/6 mice, embryonic day 2 (E2) were obtained from Jackson Laboratory (Bar Harbor, […].) and individually housed and maintained in an animal facility of the University of South Florida (USF). All subsequent experiments were performed in compliance with protocols approved by the USF Institutional Animal Care and Use Committee. […] Intraperitoneal PBS injection (200 μL) was used as the control for IL-6 administration. Open field (OF)—The OF behavioral analysis is a test of both locomotor activity and emotionality in rodents (Radyushkin et al. 2009). Mice were placed in a 50×50 cm white Plexiglas box brightly lit by fluorescent room lighting and six 60 W incandescent bulbs approximately 1.5 m above the box. Activity was recorded by a ceiling-mounted video camera and analyzed from digital video files either by the automated tracking capabilities of Ethovision or counted using the behavior tracker (version 1.5, www.behaviortracker.com), a software-based event-recorder. The total distance moved and numbers of entries into the center of the arena (central 17 cm square) were determined in a 10 minute session. […] We also treated control mice (non-IL-6 treated) with the STAT3 inhibitor, S31. […] (10 mg/kg/day)]. […] Heightened anxiety and social interaction deficits are hallmarks of schizophrenia and autism. Reluctance to enter the center portion of a well-lit open field is usually taken as a measure of heightened anxiety under mildly stressful conditions (Smith et al., 2007).

[10] = test system: STAT3 activation/phosphorylation induced by IL-6; assay: STAT3 activation induced by IL-6 in cultured neuronal cells (PC12 and N2a), Western blot; type: cell-based; conditions: dose-dependent
[11] = 500-2,000 mg per day orally for up to one year; cited from earlier work
[12] = test system: IL-6 induced STAT3 phosphorylation (Ser727); assay: IL-6 induced STAT3 phosphorylation in N2a and primary neuronal cells, Western blot; type: cell-based, murine; conditions: IL-6 50 ng/mL, 30 min
Procedure: (§5) Cerebral cortices were isolated from C57BL/6 mouse embryos, between 15 and 17 days in utero. After 15 min of incubation in trypsin (0.25%) at 37° C., individual cortices were mechanically dissociated. Cells were collected after centrifugation at 1200 rpm, resuspended in DMEM supplemented with 10% fetal calf serum, 10% horse serum, uridine ([…]; Sigma) and fluorodeoxyuridine ([…]; Sigma), and plated in 24 well collagen coated culture plates at a density of 2.5×10^5 cells per well.
(§6) N2a (murine neuroblastoma) cells, purchased from the American Type Culture Collection (ATCC, Manassas, Va.) were grown in complete EMEM supplemented with 10% fetal calf serum. Cells were plated in 24 well collagen coating culture plates at a density of 1×10^5 cells per well. After overnight incubation, N2a cells were incubated in neurobasal media supplemented with 3 mM dibutyryl cAMP in preparation for treatment. […]
(§7) Cultured cells were lysed in ice-cold lysis buffer (20 mM Tris, pH 7.5, 150 mM NaCl, 1 mM EDTA, 1 mM EGTA, 1% v/v Triton X-100, 2.5 mM sodium pyrophosphate, 1 mM β-glycerolphosphate, 1 mM Na3VO4, 1 μg/mL leupeptin, 1 mM PMSF) as described previously (Tan et al. 2002). […] Densitometric analysis was conducted using a FluorS Multiimager with Quantity One™ software (Bio-Rad, Hercules, Calif.). […]

[13] = test system: IL-6 induced JAK2 phosphorylation; assay: IL-6 induced JAK2 phosphorylation in N2a and primary neuronal cells, Western blot; type: cell-based, murine; conditions: IL-6 50 ng/mL, 30 min
Procedure: as §5, §6, §7

[14] = after intestinal transformation of diosmin to diosmetin and absorption; cited from earlier work
[15] = dose dependent, N2a and primary neurons

open-field behaviour, inhibitor-treated control (non-IL-6 injected) mice vs PBS-treated mice (IL-6/MIA adult offspring [9]; mouse, in vivo)	SMILES	reduction of the IL-6 induced increase in IL-1β level, newborn brain homogenates (IL-1β [1]) [%]	IL-6 induced JAK2 phosphorylation in newborn brain homogenates [2]	IL-1β cytokine level in adult offspring brain homogenates (IL-1β [3])	STAT3 phosphorylation in adult offspring brain homogenates [4]	TNF-α cytokine level in adult offspring brain homogenates (TNF-α [5])	reduction of the IL-6 induced increase in TNF-α level, newborn brain homogenates (TNF-α [6]) [%]	IL-6 induced STAT3 phosphorylation in newborn brain homogenates [7]	social interaction test, sniffing time (IL-6/MIA adult offspring [8])	social interaction test, social impairment (preference for the social chamber) (IL-6/MIA adult offspring [8])	open-field test, entries into the center (IL-6/MIA adult offspring [9])	inhibition of activation/phosphorylation of STAT3 induced by IL-6 [10]	safety and tolerability in clinical trials [11]	concentration at which significant reductions of STAT3 (Ser727) phosphorylation begin [12, 15] [µM]	effect on apoprotein level of STAT3 ([12]; luteolin 0-20 μM)	concentration at which significant reductions of JAK2 phosphorylation begin [13, 15] [µM]	effect on apoprotein level of JAK2 ([13]; luteolin 0-20 μM)	plasma half-life [14] [h]
did not find a significance	Cc1ccc(S(=O)(=O)OCC(=O)Nc2ccc(C(=O)O)c(O)c2)cc1 [S31-201]	~50	significantly reduce	significantly reduces	significant reduction	significantly reduces	~50	significantly reduce	increase in sniffing compared to IL-6/MIA mice	significantly attenuated	entering the center more often than IL-6 treated animals	–	–	–	–	–	–	–
–	COc1ccc(-c2cc(=O)c3c(O)cc(O[C@@H]4O[C@H](CO[C@@H]5O[C@@H](C)[C@H](O)[C@@H](O)[C@H]5O)[C@@H](O)[C@H](O)[C@H]4O)cc3o2)cc1O [diosmin]	~50	significantly reduce	significantly reduces	significant reduction	significantly reduces	~50	significantly reduce	increase in sniffing compared to IL-6/MIA mice	significantly attenuated	entering the center more often than IL-6 treated animals	inhibit activation/phosphorylation of STAT3	excellent safety profile and were well tolerated	–	–	–	–	–
–	O=c1cc(-c2ccc(O)c(O)c2)oc2cc(O)cc(O)c12 [luteolin, 3′,4′,5,7-tetrahydroxyflavone]	–	–	–	–	–	–	–	–	–	–	inhibit activation/phosphorylation of STAT3	–	10	did not affect	10	did not affect	–
–	COc1ccc(-c2cc(=O)c3c(O)cc(O)cc3o2)cc1O [diosmetin]	–	–	–	–	–	–	–	–	–	–	–	–	–	–	–	–	26 to 43
